Here are results for five compounds from ChEMBL document CHEMBL4673233, “Discovery of novel (6S/12aS)-heptachpyridone capable of inhibiting thrombosis in vivo” (Bioorg Med Chem Lett, 2020).

Each structure is given as a SMILES string. The source made the active and inactive calls. No cut-off for these calls is given here.

The nature of data set [1]: Toxicity in inferior vena cava ligation-induced venous thrombosis rat model assessed as international normalized ratio measure of prothrombin time and exogenous coagulation pathway at 4.87 umol/kg. The settings on record: in vivo, dose 1 µmol/kg.
The test system of data set [2] is Rattus norvegicus. The data set can be described thus: Antithrombotic activity in rat model of inferior vena cava ligation-induced venous thrombosis assessed as reduction in venous thrombus weight at 4.87 umol/kg, po. Type of data set: functional, organism-based. As to conditions: dose 4.87 µmol/kg.
Data set [3] can be described thus: Toxicity in inferior vena cava ligation-induced venous thrombosis rat model assessed as bleeding time at 4.87 umol/kg. The settings on record: in vivo, dose 4.87 µmol/kg.
Data set [4] can be described thus: Toxicity in inferior vena cava ligation-induced venous thrombosis rat model assessed as clotting time at 4.87 umol/kg. As to conditions: in vivo, dose 4.87 µmol/kg.
Data set [5] can be described thus: Drug metabolism in rat plasma assessed as formation of 6s/12as-bisdimethoxyethylheptachpyridone incubated for 1 hr by HPLC-FT-ICR-MS analysis. It counts as ADME, cell-free.
For data set [6], the system named is Rattus norvegicus. As to the kind of experiment: Antithrombotic activity in rat model of inferior vena cava ligation-induced venous thrombosis assessed as reduction in venous thrombus weight at 1 umol/kg, po. Type of data set: functional, organism-based. As to conditions: dose 1.0 µmol/kg.
The nature of data set [7]: Toxicity in inferior vena cava ligation-induced venous thrombosis rat model assessed as clotting time at 1 umol/kg. The settings on record: in vivo, dose 1 µmol/kg.
Data set [8] in a line: Toxicity in inferior vena cava ligation-induced venous thrombosis rat model assessed as bleeding time at 1 umol/kg. As to conditions: in vivo, dose 1 µmol/kg.
Data set [9] relates to Rattus norvegicus. The data set can be described thus: Antithrombotic activity in rat model of thread-induced arterial thrombosis assessed as reduction artery thrombus at 1 umol/kg, po. It counts as functional, organism-based. The settings on record: dose 1.0 µmol/kg.
Data set [10] in a line: Toxicity in inferior vena cava ligation-induced venous thrombosis rat model assessed as international normalized ratio measure of prothrombin time and exogenous coagulation pathway at 1 umol/kg. As to conditions: in vivo, dose 1 µmol/kg.
A short description of data set [11]: Drug metabolism in rat plasma assessed as formation of 6s/12as-heptachpyridone incubated for 1 hr by HPLC-FT-ICR-MS analysis. It counts as ADME, cell-free.
Data set [12] concerns Rattus norvegicus. As to the kind of experiment: Antithrombotic activity in rat model of thread-induced arterial thrombosis assessed as reduction artery thrombus at 167 umol/kg, po. It counts as functional, organism-based. As to conditions: dose 167.0 µmol/kg.

As to `CC(=O)CC(c1ccccc1)c1c(O)c2ccccc2oc1=O` (configuration not stated) [WARFARIN], the Activity result in data set [1], in data set [3] and in data set [4] was “Toxic” each time. The outcome in data set [2] was Active.

Regarding `COC(C[C@@H]1N[C@H](C(=O)O)Cc2c1[nH]c1ccccc21)OC`, in data set [5], the Drug metabolism result is listed as “Metabolite_Detected”.

As to `O=CC[C@H]1c2[nH]c3ccccc3c2C[C@H]2C(=O)N3[C@@H](Cc4c([nH]c5ccccc45)[C@@H]3CC=O)C(=O)N21`, the outcome in data set [6] and in data set [9] was Active. Besides, the Activity entry in [7], in data set [8] and in [10] was “Non-Toxic” in each case.

For `COC(C[C@H]1c2[nH]c3ccccc3c2C[C@H]2C(=O)N3[C@@H](Cc4c([nH]c5ccccc45)[C@@H]3CC(OC)OC)C(=O)N21)OC`, the Drug metabolism entry in data set [11] is given as “Metabolite_Detected”.

`CC(=O)Oc1ccccc1C(=O)O`: the outcome in data set [12] was Active.
